Columns and labels:
Assay type in all cases: physicochemical, human
[1] = GC/MS of blood plasma sample: time from blood collection to cooling of blood (Table B); set-up: key to Rate of increase or decrease / Rate of increase or decrease (first value, increase): detection intensity relative to 1 at cooling time ≤1 min; settings: for Rate of increase or decrease: detection intensity relative to 1 at 1 minute or less, blood collection to cooling 5 minutes; for Increase or decrease: detection intensity, blood collection to cooling 5 minutes or more vs 1 minute or less
Outline: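 Blood drawn at room temperature into EDTA tubes, mixed, then cooled at 4° C. within 1 minute or less versus 5 minutes or more before centrifugation (4° C., 3000 rpm, 15 minutes). Plasma was frozen, methoxymated and trimethylsilylated, and analysed by EI GC/MS in MRM mode. Values are detection intensity relative to the ≤1 minute condition.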

[2] = LC/MS of blood plasma sample: time from blood collection to centrifugation (Table D); settings: for Increase or decrease: detection intensity; for Increase or decrease / Rate of increase or decrease: blood collection to centrifugation; for Rate of increase or decrease: detection intensity relative to 1 at 15 minutes
Outline: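 Detection intensities are expressed relative to samples centrifuged 15 min after collection (=1), measured by electrospray LC/MS in MRM mode (Discovery HS F5-3, 40 °C, formic acid water/acetonitrile gradient at 0.25 mL/min). EDTA blood from a healthy donor was held at 4 °C, centrifuged at 4 °C, 3000 rpm, 15 min, and plasma frozen.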

[3] = LC/MS of blood plasma sample: time from blood collection to cooling of blood (Table E); set-up: key to Rate of increase or decrease / Rate of increase or decrease (first value, increase): detection intensity relative to ≤1 min to cooling = 1; settings: for Increase or decrease: detection intensity, blood collection to cooling 5 minutes or more vs 1 minute or less; for Rate of increase or decrease: detection intensity relative to 1 at 1 minute or less, blood collection to cooling 5 minutes
[4] = LC/MS of serum sample: time from centrifugation to isolation (Table K); set-up: key to Rate of increase or decrease: detection intensity relative to the 30-minute value set as 1; settings: for Rate of increase or decrease: after 6 hours from centrifugation to isolation, detection intensity relative to 1 at 30 minutes; for Increase or decrease / Time when compound is affected: serum sample, LC/MS; for Increase or decrease: detection intensity vs 30 minutes from centrifugation to isolation; for Time when compound is affected: time from centrifugation to isolation, detection intensity changed by 30% or more vs 30 minutes
Outline: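 Serum left at room temperature 30 min, 1 h or 6 h between centrifugation (3500 rpm, 5 min, room temperature) and isolation, then frozen and analysed by LC/MS (Discovery HS F5-3 column, 40° C., 0.1% formic acid water/acetonitrile, electrospray, MRM). Values are detection intensity relative to the 30-min condition set to 1.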

[5] = different from individual to individual, individuals with decrease, relative to 1 at 1 minute or less, collection to cooling 5 minutes
[6] = different from individual to individual, individuals with increase, relative to 1 at 1 minute or less, collection to cooling 5 minutes

Row | Rate of increase or decrease [1] | Increase or decrease [1] | Increase or decrease ([2]; after 6 hours vs 15 minutes) | Increase or decrease [3] | Rate of increase or decrease (second value, decrease) [3, 5] | Rate of increase or decrease (first value, increase) [3, 6] | Rate of increase or decrease (second value, decrease) [1, 5] | Rate of increase or decrease (first value, increase) [1, 6] | Rate of increase or decrease [4] | Increase or decrease [4] | Time when compound is affected [4] | Rate of increase or decrease ([2]; after 4 hours) | Increase or decrease ([2]; after 4 hours vs 15 minutes) | Rate of increase or decrease [3] | Rate of increase or decrease (second value, decrease) ([2]; different from individual to individual, individuals with decrease, relative to 1 at 15 minutes, collection to centrifugation, after 4 hours) | Rate of increase or decrease (first value, increase) ([2]; different from individual to individual, individuals with increase, relative to 1 at 15 minutes, collection to centrifugation, after 4 hours) | Rate of increase or decrease ([2]; after 6 hours) | Compound
1 | 3.56 | Increase | Increase | – | – | – | – | – | – | – | – | – | – | – | – | – | – | CC(C)(CO)[C@@H](O)C(=O)NCCC(=O)O [Pantothenic acid]
2 | – | Different from individual | – | Different from individual | 0.40 | 1.57 | 0.57 | 1.30 | 10.46 | Increase | After 6 hours | 0.52 | Decrease | – | – | – | – | NC(=O)NC1NC(=O)NC1=O (stereo not shown) [Allantoin]
3 | – | – | – | Increase | – | – | – | – | 2.78 | Increase | After 6 hours | – | Different from individual | 7.92 | 0.70 | 3.84 | – | O=c1[nH]cnc2nc[nH]c12 [Hypoxanthine]
4 | 0.45 | Decrease | Increase | Increase | – | – | – | – | 2.50 | Increase | After 6 hours | – | – | 1.47 | – | – | 1.39 | O=c1[nH]c(=O)c2[nH]cnc2[nH]1 [Xanthine]

Source: patent publication US20220146526A1, “METHOD FOR EVALUATING SAMPLE, ANALYSIS METHOD, METHOD FOR DETECTING DEGRADED SAMPLE, MARKER FOR DETECTING DEGRADED BLOOD PLASMA SAMPLE, AND MARKER FOR DETECTING DEGRADED SERUM SAMPLE” (SHIMADZU CORPORATION, priority 2019, published 2022)
